Test results from US20240116864A1, “XANTHOPHYLL DERIVATIVES” (priority 2020, published 2024).

Test system: Caco-2 cell homogenates
Assay: Conversion of prodrug to parent compound (astaxanthin) in frozen/thawed unviable Caco-2 cell homogenates
Assay type: in vitro ADME
From the text: Formation of astaxanthin in resuspended Caco-2 cells previously frozen.
Human carboxylesterase 1 (hCE-1) and carboxylesterase 2 (hCE-2) are serine esterases involved in both drug metabolism and activation of prodrugs. The expression pattern of human carboxylesterase in Caco-2 (human colon adenocarcinoma) cell line is similar to human […] that expresses a much higher level of hCE-1 and lower level of hCE-2 (Drug Metab. Pharmacokinet. 21 (3): 173-185 (2006)).
Therefore, the formation of astaxanthin from compounds CCXX, CCXXI, CCXXII and CCXXVI was tested with Caco-2 cells that were frozen at −80° C. and thawed before testing. The freezing/thawing process without cryopreservants compromised the integrity of the membrane, as confirmed by positive staining of the dead cells with a dye exclusion method using trypan blue. Dead cells are not selective to compounds passing through the compromised membrane, eliminating the transport and permeation barriers to access the cell content and metabolic enzymes including the carboxylesterases.
The Caco-2 (colorectal adenocarcinoma) cellular line was obtained from Cordoba Cell Bank (CCB, CIQUIBIC, Cordoba, Argentina), #ATCC Passage: 18. #CCB Passage: 4. Culture conditions: Low Glucose DMEM (1 g/L)+Penicillin-Streptomycin+20% Fetal Bovine Serum (SFB). Cells were cultured in a 37° C. incubator with 5% CO2 on cell culture dishes. Once they reached confluence, cells were washed twice with Phosphate-buffered saline (PBS) and lifted after trypsinization. For trypsinization, 1 mL of trypsin was added, incubated for a few minutes in the 37° C. incubator, neutralized with supplemented culture medium and cells were collected in 15 mL tubes (Falcon). The tubes were centrifuged for 5 min at 1000 rpm, the supernatant was removed, and the cells were resuspended in supplemented medium. To determine the amount of viable (living) cells, a ½ dilution with trypan blue dye was made and counted in an automatic cell counter (more than 90% of live cells were measured). Finally, the tubes were centrifuged again, and cells were resuspended at a concentration of 5 million/mL in non-supplemented DMEM and placed in a −80° C. freezer. To determine the amount of non-viable cells after freezing and thawing, a ½ dilution with trypan blue dye was made and they were counted in an automatic cell counter and the dead cells were above 95%. Pools of unviable (“leaking”) cell homogenates were subsequently used for incubations with the compounds of interest.
A 1 mL frozen aliquot containing 5 million/mL of unviable Caco-2 cells was thawed and warmed at 37° C. A 0.010 mL aliquot of a stock solution of the compound in DMSO (2.5 mM) was added to the cells and incubated at 37 ° C. At selected timepoints, a 0.2 mL aliquot was removed and mixed with 0.5 mL of methanol containing retinyl acetate (0.011 mM) as an internal standard. The methanolic mixture was vigorously vortexed and 1 mL of chloroform was added to extract unreacted compound, astaxanthin and related compounds as well as the internal standard. After vigorous vortexing, the mixture was centrifuged at 8000 rpm for 10 min at 4° C. The chloroform phase was removed and dried under nitrogen flow. 1 mL of the sample solvent (THF/acetonitrile with 1% Formic acid) was added to the residue, mixed vigorously and filtered through a PVDF 0.22 um filter in a HPLC vial. The filtrate was stored in the autosampler at 5° C. and injected in the HPLC to measure the amount of internal standard, unreacted compound, free astaxanthin and its related compounds. The HPLC equipment was a UHPLC Nexera XR (Shimadzu)/PDA SPD-M3OA (Shimadzu) with a Shimpack GIST C18 100×2.1 mm, 2 um column at 40° C. Two HPLC methods were used, gradient and isocratic depending on the prodrug. Gradient method: flow 0.2 mL/m, mobile phase A (MPA): water with formic acid 0.1%, mobile phase B (MPB): acetonitrile with formic acid 0.1%, gradient: time 0 m 60/40, 2.5 m 10/90, 10.4 m 10/90. UV(PDA) detector 380 and 325 nm (for retinyl acetate). […]

[1] = unviable Caco-2 cells 5 million/mL, 37 °C, HPLC

Row | SMILES | Conversion to trans-astaxanthin [1] | Conversion to astaxanthin monoester (Caco-2) | Stability over the same time frame (Caco-2) | Conversion efficiency to trans-astaxanthin (comparison between compounds) [1]
1 | CC1=C(/C=C/C(C)=C/C=C/C(C)=C/C=C/C=C(C)/C=C/C=C(C)/C=C/C2=C(C)C(=O)[C@@H](OC(=O)[C@@H](C)NC(=O)c3cccnc3)CC2(C)C)C(C)(C)C[C@H](OC(=O)[C@H](C)NC(=O)c2cccnc2)C1=O [CCXXII] | observed | – | – | –
2 | CC1=C(/C=C/C(C)=C/C=C/C(C)=C/C=C/C=C(C)/C=C/C=C(C)/C=C/C2=C(C)C(=O)[C@@H](OC(=O)[C@H](NC(=O)c3cccnc3)C(C)C)CC2(C)C)C(C)(C)C[C@H](OC(=O)[C@@H](NC(=O)c2cccnc2)C(C)C)C1=O [CCXXVI] | – | only a small amount | stable | –
3 | CC1=C(/C=C/C(C)=C/C=C/C(C)=C/C=C/C=C(C)/C=C/C=C(C)/C=C/C2=C(C)C(=O)[C@@H](OC(=O)CNC(=O)c3cccnc3)CC2(C)C)C(C)(C)C[C@H](OC(=O)CNC(=O)c2cccnc2)C1=O [CCXX, (all-E)-3S,3′S-Astaxanthin-di-N-nicotinoglycinate] | observed | – | – | higher conversion efficiency to trans-astaxanthin than CCXXI and CCXXII
4 | CC1=C(/C=C/C(C)=C/C=C/C(C)=C/C=C/C=C(C)/C=C/C=C(C)/C=C/C2=C(C)C(=O)[C@@H](OC(=O)CCNC(=O)c3cccnc3)CC2(C)C)C(C)(C)C[C@H](OC(=O)CCNC(=O)c2cccnc2)C1=O [CCXXI, (all-E)-3S,3′S-astaxanthin-di-N-nicotinoyl-β-alaninate] | observed | – | – | –
